For data set [1], the target named is T1, DNA-directed RNA polymerase I subunit RPA1 (Homo sapiens, UniProt O95602). Kind of data set: Inhibition of RNA polymerase 1 in human A-375 assessed as RPA194 degradation measured after 3 hrs by Hoechst 33342 staining based assay.
The target in another data set is T2, Cytochrome P450 1A2 (Homo sapiens, UniProt P05177).
T2 sequence (P05177 whole entry): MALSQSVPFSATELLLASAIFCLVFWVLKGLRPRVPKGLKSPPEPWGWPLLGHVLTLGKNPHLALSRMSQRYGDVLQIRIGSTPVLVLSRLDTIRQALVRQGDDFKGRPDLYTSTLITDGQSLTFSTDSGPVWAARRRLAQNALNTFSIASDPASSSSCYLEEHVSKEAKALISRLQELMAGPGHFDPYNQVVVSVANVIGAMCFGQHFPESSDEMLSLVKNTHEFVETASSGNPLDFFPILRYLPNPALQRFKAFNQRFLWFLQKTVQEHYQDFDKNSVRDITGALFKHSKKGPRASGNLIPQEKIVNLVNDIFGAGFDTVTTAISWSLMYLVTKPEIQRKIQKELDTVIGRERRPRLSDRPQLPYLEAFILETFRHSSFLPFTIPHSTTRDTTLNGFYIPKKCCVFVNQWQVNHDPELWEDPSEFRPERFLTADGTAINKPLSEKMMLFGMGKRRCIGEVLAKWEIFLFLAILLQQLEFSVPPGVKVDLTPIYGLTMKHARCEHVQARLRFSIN
Description: Inhibition of recombinant human hepatic CYP1A2 expressed in baculovirus insect cell expression system in presence of CEC substrate measured by fluorescence plate reader assay.

Data set [2] deals with Voltage-gated inwardly rectifying potassium channel KCNH2 (Homo sapiens, UniProt Q12809). Description: Inhibition on hERG expressed in HEK293 cells by Qpatch method. Background: hERG is a cardiac potassium channel; its block is linked to QT prolongation.
Sequence of Voltage-gated inwardly rectifying potassium channel KCNH2 (Q12809 whole entry): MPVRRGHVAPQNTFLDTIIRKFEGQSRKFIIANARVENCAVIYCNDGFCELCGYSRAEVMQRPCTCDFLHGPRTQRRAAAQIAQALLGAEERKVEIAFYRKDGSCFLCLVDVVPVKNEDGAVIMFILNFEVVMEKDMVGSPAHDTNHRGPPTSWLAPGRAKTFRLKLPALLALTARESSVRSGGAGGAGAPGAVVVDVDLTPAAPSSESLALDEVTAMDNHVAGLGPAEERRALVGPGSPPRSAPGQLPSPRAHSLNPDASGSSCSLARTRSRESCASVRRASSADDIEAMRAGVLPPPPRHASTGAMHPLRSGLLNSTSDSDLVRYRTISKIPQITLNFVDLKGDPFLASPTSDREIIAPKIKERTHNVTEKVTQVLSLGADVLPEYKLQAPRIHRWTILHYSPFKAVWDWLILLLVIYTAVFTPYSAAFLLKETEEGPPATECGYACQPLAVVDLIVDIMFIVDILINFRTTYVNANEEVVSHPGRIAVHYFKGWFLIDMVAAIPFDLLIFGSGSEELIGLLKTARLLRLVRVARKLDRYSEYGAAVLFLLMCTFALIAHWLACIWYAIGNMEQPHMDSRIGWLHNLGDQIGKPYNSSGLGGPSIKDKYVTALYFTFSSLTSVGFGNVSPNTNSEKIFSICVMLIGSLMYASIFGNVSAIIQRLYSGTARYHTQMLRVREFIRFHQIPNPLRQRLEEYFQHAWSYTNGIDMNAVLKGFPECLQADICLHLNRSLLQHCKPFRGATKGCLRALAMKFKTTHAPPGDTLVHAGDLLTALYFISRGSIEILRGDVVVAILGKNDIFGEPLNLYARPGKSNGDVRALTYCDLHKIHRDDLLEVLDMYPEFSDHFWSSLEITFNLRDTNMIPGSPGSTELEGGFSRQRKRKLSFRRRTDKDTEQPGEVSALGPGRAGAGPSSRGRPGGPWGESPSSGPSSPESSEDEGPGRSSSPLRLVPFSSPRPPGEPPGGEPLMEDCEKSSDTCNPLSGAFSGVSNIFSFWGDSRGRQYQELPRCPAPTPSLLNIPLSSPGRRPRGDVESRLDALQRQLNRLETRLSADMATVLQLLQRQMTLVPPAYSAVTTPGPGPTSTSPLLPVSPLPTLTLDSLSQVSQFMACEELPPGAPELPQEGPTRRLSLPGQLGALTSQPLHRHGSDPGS
In data set [3] the test system is A-375. Kind of data set: Inhibition of RPA2 in human A-375 cells assessed as downregulation of RPA2 gene at 1 uM incubated for 6 hrs measured by qPCR analysis. The format is cell-based. Background: Real-time PCR tracks product formation cycle by cycle.
Data set [4] has as its system A-375. Description: Inhibition of RPA3 in human A-375 cells assessed as downregulation of RPA3 gene at 1 uM incubated for 6 hrs measured by qPCR analysis. The format is cell-based.
Data set [5] can be described thus: AUC (0 to infinity) in CD1 mouse at 1 mg/kg, iv. The format is ADME, organism-based. On the set-up: time infinity, route intravenous, dose 1 mg/kg. Conditions: in vivo.
Data set [6] is described as follows: Half life in CD1 mouse at 1 mg/kg, iv. It counts as ADME, organism-based. Conditions: in vivo.
The target of data set [7] is T1, DNA-directed RNA polymerase I subunit RPA1. Description: Inhibition of RPA1 in human A-375 cells assessed as downregulation of RPA1 gene at 1 uM incubated for 6 hrs measured by qPCR analysis. It counts as cell-based.
A short description of data set [8]: Volume of distribution at steady state in CD1 mouse at 1 mg/kg, iv. It counts as ADME, organism-based. Conditions: in vivo, read-out: Vdss.
Data set [9] in a line: Oral bioavailability in CD1 mouse at 30 mg/kg. It counts as ADME, organism-based. Conditions: in vivo.
The nature of data set [10]: Metabolic stability in mouse liver microsomes at 1 uM assessed as intrinsic clearance measured after 45 mins by LC-MS/MS analysis. It counts as ADME, Microsome. Conditions: read-out: CLH.
Data set [11] in a line: Half life in CD1 mouse at 30 mg/kg, ip. Conditions: in vivo.
Data set [12] is described as follows: Clearance in CD1 mouse at 1 mg/kg, iv. It counts as ADME, organism-based. Conditions: in vivo.
Data set [13] concerns A-375. Description: Cytotoxicity against human A-375 cells assessed as reduction in cell viability incubated for 72 hrs by cell titer glo luminescent assay. Conditions: A-375, 72 h. (In general: Cellular ATP, detected with luciferase, serves as a proxy for viable cell number.)
Data set [14] is described as follows: AUC (0 to infinity) in CD1 mouse at 30 mg/kg, ip. Conditions: in vivo.
The nature of data set [15]: Cmax in CD1 mouse at 30 mg/kg, po. Conditions: in vivo. Also noted: route oral, dose 30 mg/kg. The format is ADME, organism-based.
A short description of data set [16]: Cmax in CD1 mouse at 30 mg/kg, ip. Conditions: in vivo.
A short description of data set [17]: AUC (0 to infinity) in CD1 mouse at 30 mg/kg, po. It counts as ADME, organism-based. Also noted: route oral, time infinity, dose 30 mg/kg. Conditions: in vivo.

Structures are written as SMILES. Calls of active or inactive are those of the source.

The IC50 is the point on the concentration scale where inhibition reaches its midpoint. As a reminder, the AUC(0-inf) is total exposure, with the tail of the curve extrapolated. Higher therefore signals more exposure. Usually half-life stands for the time needed for the level to fall by half in the phase considered. One may read the bioavailability as the share of a dose that reaches the circulation, judged against a reference dose that is usually intravenous. Lower therefore signals poor availability. The clearance is the volume of plasma or blood freed of the substance per unit of time. Low values mean a low capacity for elimination, high ones a high capacity for elimination. What is called Cmax is the peak of the concentration-time curve.

T1 sequence (O95602 whole entry): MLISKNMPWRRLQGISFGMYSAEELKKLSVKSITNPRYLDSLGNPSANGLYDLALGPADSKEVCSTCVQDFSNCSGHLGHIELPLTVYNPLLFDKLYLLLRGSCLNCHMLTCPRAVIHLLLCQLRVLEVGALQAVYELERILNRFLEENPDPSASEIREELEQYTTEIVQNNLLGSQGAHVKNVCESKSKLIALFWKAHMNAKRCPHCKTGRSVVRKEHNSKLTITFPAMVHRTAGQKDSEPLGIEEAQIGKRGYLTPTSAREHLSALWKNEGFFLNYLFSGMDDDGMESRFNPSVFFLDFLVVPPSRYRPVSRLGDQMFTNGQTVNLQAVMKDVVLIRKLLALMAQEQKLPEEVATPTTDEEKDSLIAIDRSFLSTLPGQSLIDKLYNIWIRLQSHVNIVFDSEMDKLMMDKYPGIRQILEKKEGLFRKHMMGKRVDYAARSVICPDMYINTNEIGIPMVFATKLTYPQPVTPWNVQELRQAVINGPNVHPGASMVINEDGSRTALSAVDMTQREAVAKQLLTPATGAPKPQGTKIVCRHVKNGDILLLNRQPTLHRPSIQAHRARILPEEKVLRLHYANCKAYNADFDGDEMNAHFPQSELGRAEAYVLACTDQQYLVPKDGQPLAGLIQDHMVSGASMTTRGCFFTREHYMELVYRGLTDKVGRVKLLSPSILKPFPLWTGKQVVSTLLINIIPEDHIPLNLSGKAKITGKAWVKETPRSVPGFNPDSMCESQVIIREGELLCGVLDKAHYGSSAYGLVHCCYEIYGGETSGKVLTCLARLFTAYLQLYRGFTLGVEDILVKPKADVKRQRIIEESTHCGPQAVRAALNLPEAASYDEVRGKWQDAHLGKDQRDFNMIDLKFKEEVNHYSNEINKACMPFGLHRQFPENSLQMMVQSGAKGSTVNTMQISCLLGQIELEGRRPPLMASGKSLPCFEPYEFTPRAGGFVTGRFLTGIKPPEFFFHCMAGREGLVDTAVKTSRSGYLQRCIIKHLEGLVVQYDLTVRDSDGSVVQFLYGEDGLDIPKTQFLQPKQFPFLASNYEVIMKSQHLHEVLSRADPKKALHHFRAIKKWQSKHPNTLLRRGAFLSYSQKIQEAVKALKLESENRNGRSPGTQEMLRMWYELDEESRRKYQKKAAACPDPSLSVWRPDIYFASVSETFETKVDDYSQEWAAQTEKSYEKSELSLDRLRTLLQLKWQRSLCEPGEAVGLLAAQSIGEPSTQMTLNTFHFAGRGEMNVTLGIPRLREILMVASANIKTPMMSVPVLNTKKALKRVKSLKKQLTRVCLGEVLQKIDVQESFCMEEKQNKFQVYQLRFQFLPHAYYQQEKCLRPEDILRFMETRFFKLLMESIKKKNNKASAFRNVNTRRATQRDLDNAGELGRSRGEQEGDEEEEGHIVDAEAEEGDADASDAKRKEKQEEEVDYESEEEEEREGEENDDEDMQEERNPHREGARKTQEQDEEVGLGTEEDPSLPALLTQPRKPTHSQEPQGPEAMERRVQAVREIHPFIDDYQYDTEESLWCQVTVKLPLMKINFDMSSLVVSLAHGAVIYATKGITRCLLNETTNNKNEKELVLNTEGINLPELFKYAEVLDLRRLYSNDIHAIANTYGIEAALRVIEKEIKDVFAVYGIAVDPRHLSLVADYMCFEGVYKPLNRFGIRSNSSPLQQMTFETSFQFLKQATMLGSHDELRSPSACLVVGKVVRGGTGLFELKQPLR

Turning to `O=C(NCCN1CCCC1)c1cccn2c1nc1cc3ccccc3cc12`, in data set [1], the concentration for half-maximal inhibition (IC50) amounted to 1.7 µM.
Still for that read-out and setting: the same measure for `O=C(NCCN1CCSCC1)c1cccn2c(=O)c3cc4ccccc4cc3nc12`: 10 µM; for `CN1CCCC1CNC(=O)c1cccn2c(=O)c3cc4ccccc4cc3nc12` (stereo not drawn): 3.94 µM.
Take `O=C(NC1CNC1)c1cccn2c(=O)c3ccc4ccccc4c3nc12`: the IC50 was 0.2 µM at Cytochrome P450 1A2, 3.97 µM in data set [2] and greater than 10 µM in [1].
As to `O=C(NCCN1CCCC1)c1cccn2c(=O)c3c(ccc4cnncc43)nc12`, the IC50 in [1] is 4.2 µM.
On to `NCCNC(=O)c1cccn2c(=O)c3ccc4ccccc4c3nc12`, for which the IC50 (on Cytochrome P450 1A2; in data set [2]; in data set [1]) was greater than 10 µM throughout.
With `O=C(NCC1CCCC(CO)N1)c1cccn2c(=O)c3cc4ccccc4cc3nc12` (stereo not drawn), the IC50 in data set [1] worked out at 0.65 µM.
In the case of `CN(C)CCCNC(=O)c1cccn2c(=O)c3ccc4ccccc4c3nc12`, the half-maximal inhibitory concentration (IC50) in data set [1] was greater than 10 µM.
On the same count and under the same terms, the same measure for `O=C(NCC1CCCCN1)c1cccn2c(=O)c3cc4ccccc4cc3nc12` (stereo not drawn): 0.59 µM.
In the case of `CN(C)CCNC(=O)c1cccn2c(=O)c3cc4ccccc4cc3nc12`, the inhibition entry in the data set on A-375 [3] and in the data set with A-375 [4] was “inactive” throughout.
Turning to `O=C(NCCN1CCC(F)(F)CC1)c1cccn2c(=O)c3cc4ccccc4cc3nc12`, the IC50 in [1] was greater than 10 µM.
Take `O=C(NCCO)c1cccn2c(=O)c3ccc4ccccc4c3nc12`: the IC50 was 0.1 µM at Cytochrome P450 1A2, greater than 10 µM in data set [2] and 9.5 µM in data set [1].
`O=C(NCCN1CCC(O)(O)CC1)c1cccn2c(=O)c3cc4ccccc4cc3nc12`: in data set [1], the IC50 was determined as 0.6 µM.
On the same count and under the same terms, the same measure for `O=C(NCCN1CCCC1)c1cccn2c1nc1cc3ccccc3nc12`: 6 µM; for `CC(C)N1CCCCC1CNC(=O)c1cccn2c(=O)c3cc4ccccc4cc3nc12` (stereo not drawn): 10 µM.
For `CN1CCC(NC(=O)c2cccn3c(=O)c4ccc5ccccc5c4nc23)CC1`, the 50% inhibitory concentration (IC50) at Cytochrome P450 1A2 is greater than 10 µM; in data set [2], 7.39 µM; in data set [1] it was greater than 10 µM.
For the compound `CCN(CC)CCNC(=O)c1cccn2c(=O)c3ccc4ccccc4c3nc12`, in [1], the IC50 worked out at 0.6 µM.
Still for that read-out and setting: the value for `O=C(NCCCN1CCCC1)c1cccn2c(=O)c3ccc4ccccc4c3nc12` was greater than 10 µM.
`O=C(NCCN1CCCC1)c1cccn2c(=O)c3ccc4ccccc4c3nc12`: the AUC(0-inf) amounted to 30.8 ng·h/mL in [5], 518 ng·h/mL in data set [14] and 122 ng·h/mL in [17]. Further, the half-life was 1.22 h in data set [6] and 7.52 h in data set [11]. For the same compound, the inhibition result in data set [7] is “Active”. Also, the Vd in data set [8] was 33.2 L/kg. The inhibition entry in the data set on A-375 [3] and in the data set on A-375 [4] was “inactive” each time. In addition, the bioavailability in [9] was 13%. Moreover, the microsomal CLint at 1 µM in data set [10] came out at 132 µL/min/mg. In data set [12], this compound registered a clearance of 508 mL/min/kg. Further, the IC50 in the data set on A-375 [13] was found to be 0.038 µM; in data set [1], 0.21 µM. Moreover, the Cmax in data set [15] turned out to be 13.9 ng/mL; in data set [16], 83 ng/mL.
`O=C(NCCN1CCCC1)c1cccn2c(=O)c3cc4c(cc3nc12)OC(F)(F)O4`: the IC50 in data set [1] was found to be 0.42 µM.
Same read-out and setting: the same measure for `CN(C)CCNC(=O)c1cccn2c(=O)c3ccc4ccccc4c3nc12`: 0.16 µM.
On the same count and under the same terms, the same measure for `O=C(NCCN1CCS(=O)(=O)CC1)c1cccn2c(=O)c3cc4ccccc4cc3nc12`: greater than 10 µM; for `O=C(NCC1CCCN1)c1cccn2c(=O)c3cc4ccccc4cc3nc12` (stereo not drawn): 0.78 µM.
The same measure, in the same setting: the same measure for `COc1cc2nc3c(C(=O)NCCN4CCCC4)cccn3c(=O)c2cc1OC`: 6.86 µM.
`N#CC1CCN(CCNC(=O)c2cccn3c(=O)c4cc5ccccc5cc4nc23)CC1`: the IC50 in data set [1] was 0.74 µM.
Regarding `O=C(NCCN1CCCC1)c1cccn2c(=O)c3cc4c(cc3nc12)OCO4`, the concentration for half-maximal inhibition (IC50) in data set [1] came out at 0.54 µM.
Turning to `O=C(NCCN1CCC(F)C1)c1cccn2c(=O)c3cc4ccccc4cc3nc12` (stereo not drawn), the IC50 in [1] was found to be 5.75 µM.
In the case of `O=C(NCCN1CCCC(F)(F)C1)c1cccn2c(=O)c3cc4ccccc4cc3nc12`, in [1], the IC50 is greater than 10 µM.
As for `O=C(NCCN1CC[C@H](F)C1)c1cccn2c(=O)c3ccc4ccccc4c3nc12`, the IC50 was 4.5 µM at Cytochrome P450 1A2, greater than 10 µM in data set [2] and greater than 10 µM in data set [1].
Turning to `O=C(NCCN1CCCC1)c1cccn2c(=O)c3cc4c(cc3nc12)CCCC4`, in data set [1], the concentration for half-maximal inhibition (IC50) was determined as 1.39 µM.
For the compound `O=C(NCCN1CCC(F)(F)C1)c1cccn2c(=O)c3cc4ccccc4cc3nc12`, the IC50 in [1] was greater than 10 µM.
For `O=C(NCCN1CCC(F)CC1)c1cccn2c(=O)c3cc4ccccc4cc3nc12`, the IC50 in [1] was determined as 0.78 µM.
Take `O=C(NCCN1CCCC1)c1c(O)ccn2c(=O)c3cc4ccccc4cc3nc12`: the half-maximal inhibitory concentration (IC50) in [1] stood at 5.5 µM.
For the compound `CNCCNC(=O)c1cccn2c(=O)c3ccc4ccccc4c3nc12`, the IC50 on Cytochrome P450 1A2 is 0.3 µM; in data set [2], greater than 10 µM; in data set [1] it was 0.47 µM.
For `O=C(NCCN1CC[C@@H](F)C1)c1cccn2c(=O)c3ccc4ccccc4c3nc12` the same measures were 2.1 µM, 8.26 µM and 1.9 µM.
For the compound `CN1CCN(CCNC(=O)c2cccn3c(=O)c4ccc5ccccc5c4nc23)CC1`, the IC50 (at Cytochrome P450 1A2; in [2]; in data set [1]) was greater than 10 µM throughout.
Turning to `CN1CCOCC1CNC(=O)c1cccn2c(=O)c3cc4ccccc4cc3nc12` (stereo not drawn), the IC50 in data set [1] was found to be 1 µM.
In the case of `Cc1cc2nc3c(C(=O)NCCN4CCCC4)cccn3c(=O)c2cc1C`, the IC50 in data set [1] was 1.16 µM.
As to `O=C(NCCN1CCCC1)c1cccn2c(=O)c3c(ccc4ccccc43)nc12`, the concentration for half-maximal inhibition (IC50) in [1] is greater than 10 µM.
`O=C(NCCN1CCCCC1)c1cccn2c(=O)c3ccc4ccccc4c3nc12`: the half-inhibitory concentration (IC50) at Cytochrome P450 1A2 was greater than 10 µM; in [2], 3.72 µM; in [1], 0.64 µM.
Turning to `CC(NC(=O)c1cccn2c(=O)c3cc4ccccc4cc3nc12)C1CCCCN1` (stereo not drawn), the IC50 in data set [1] is 0.92 µM.
The same measure, in the same setting: the same measure for `O=C(NCCN1CCCC1)c1cccn2c(=O)c3cc4c(cc3nc12)OCCO4`: 1.04 µM.
For `CCN1CCCCC1CNC(=O)c1cccn2c(=O)c3cc4ccccc4cc3nc12` (stereo not drawn), the IC50 in data set [1] turned out to be 0.99 µM.
As for `O=C(NCCN1CCCC(F)C1)c1cccn2c(=O)c3cc4ccccc4cc3nc12` (stereo not drawn), in [1], the IC50 was greater than 10 µM.
